Experimental data published in US9260467B2, “Sialic acid dimers” (priority 2011, dated 2016).

Columns and labels:
Siglec-2 (CD22) [1] = target: T1, Siglec-2 (CD22) (Homo sapiens, UniProt P20273); test: known affinity assay (Bock et al., Methods Mol. Biol. 2006), 'Literature assay'; type: binding; conditions: relative Inhibitory Potency; BPC Neu5Ac = 1
T1 sequence (P20273 20-847): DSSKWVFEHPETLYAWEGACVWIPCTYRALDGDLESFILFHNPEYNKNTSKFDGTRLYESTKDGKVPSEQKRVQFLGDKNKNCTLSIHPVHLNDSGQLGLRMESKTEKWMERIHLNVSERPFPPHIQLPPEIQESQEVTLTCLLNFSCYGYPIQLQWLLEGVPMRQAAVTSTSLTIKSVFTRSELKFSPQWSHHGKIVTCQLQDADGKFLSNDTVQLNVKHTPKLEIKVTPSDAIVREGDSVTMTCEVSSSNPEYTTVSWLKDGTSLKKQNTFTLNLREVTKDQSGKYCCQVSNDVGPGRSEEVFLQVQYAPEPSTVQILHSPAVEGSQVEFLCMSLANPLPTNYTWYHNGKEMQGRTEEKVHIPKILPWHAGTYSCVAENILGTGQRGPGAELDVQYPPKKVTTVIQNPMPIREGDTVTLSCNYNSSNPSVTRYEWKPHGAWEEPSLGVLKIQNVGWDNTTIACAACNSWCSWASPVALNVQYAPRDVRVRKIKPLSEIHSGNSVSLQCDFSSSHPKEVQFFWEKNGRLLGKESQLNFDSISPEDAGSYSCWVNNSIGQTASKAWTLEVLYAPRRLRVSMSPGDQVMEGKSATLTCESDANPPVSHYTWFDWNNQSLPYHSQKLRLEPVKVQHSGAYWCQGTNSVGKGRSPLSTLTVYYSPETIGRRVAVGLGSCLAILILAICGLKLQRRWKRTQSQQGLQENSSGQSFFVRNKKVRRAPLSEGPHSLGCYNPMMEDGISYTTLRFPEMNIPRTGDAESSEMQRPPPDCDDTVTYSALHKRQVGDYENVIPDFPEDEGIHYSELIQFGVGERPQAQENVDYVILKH
Procedure: The affinity of a number of dimers was measured using a known assay (Bock et al., Methods Mol. Biol. 2006, 347, 359-375). […] Exact values were undeterminable, however, owing to fluctuating values. In order to be able to determine the affinity of the new derivatives reliably, a new assay was drawn up. For this assay, compound 155 was prepared.

Siglec-2 (CD22) [2] = target: T1, Siglec-2 (CD22); test: new affinity assay: displacement of biotinylated compound 155 from sialidase-treated Daudi cells, FACS with streptavidin-PE; type: binding; parameters: endogenous in cells; host or cells: Daudi (human B-cell lymphoma line); conditions: for rIP: Table II, rIP values set relative to compound 38, Daudi cells, displacement of compound 155; for rIP (New assay): relative Inhibitory Potency from IC50, human B-cell lymphoma line Daudi, compound 38 = 1
How it was run: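 Sialidase-treated Daudi cells preincubated on ice 15 min with inhibitor (1 mM to 1×10^−7 mM), then 20 min with biotinylated probe (4 μM as added); bound probe detected by streptavidin-PE flow cytometry. IC50 converted to relative inhibitory potency (rIP) against a reference substance.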

`CC(=O)N[C@H]1[C@H]([C@H](O)[C@H](O)CNC(=O)c2ccc(-c3ccccc3)cc2)O[C@@](OCCCSCCNC(=O)c2ccc(C(=O)NCCSCCCO[C@]3(C(=O)[O-])C[C@H](O)[C@@H](NC(C)=O)[C@H]([C@H](O)[C@H](O)CNC(=O)c4ccc(-c5ccccc5)cc4)O3)cc2)(C(=O)[O-])C[C@@H]1O.[Na+].[Na+]` [Compound 21] was tested, and the “rIP (Literature assay)” value (Siglec-2 (CD22) [1]) was >2000, the rIP (Siglec-2 (CD22) [2]) was 2979 and the “rIP (New assay)” value (Siglec-2 (CD22) [2]) was 2979.
For `CC(=O)N[C@H]1[C@H]([C@H](O)[C@H](O)CO)O[C@@](OCCCSCCNC(=O)c2ccc(C(=O)NCCSCCCO[C@]3(C(=O)[O-])C[C@H](O)[C@@H](NC(C)=O)[C@H]([C@H](O)[C@H](O)CO)O3)cc2)(C(=O)[O-])C[C@@H]1O.[Na+].[Na+]` [Compound 38], the “rIP (Literature assay)” value (Siglec-2 (CD22) [1]) was ~1-3, the rIP (Siglec-2 (CD22) [2]) was 1 and the “rIP (New assay)” value (Siglec-2 (CD22) [2]) was 1.
Compound `CC(=O)N[C@H]1[C@H]([C@H](O)[C@H](O)Cn2cc(-c3ccccc3)nn2)O[C@@](OCCCSCCNC(=O)c2ccc(C(=O)NCCSCCCO[C@]3(C(=O)[O-])C[C@H](O)[C@@H](NC(C)=O)[C@H]([C@H](O)[C@H](O)Cn4cc(-c5ccccc5)nn4)O3)cc2)(C(=O)[O-])C[C@@H]1O.[Na+].[Na+]` [Compound 95] has a rIP (Siglec-2 (CD22) [2]) of 6.
With `CC(=O)N[C@H]1[C@H]([C@H](O)[C@H](O)CNC(=O)/C=C/c2ccccc2)O[C@@](OCCCSCCNC(=O)c2ccc(C(=O)NCCSCCCO[C@]3(C(=O)[O-])C[C@H](O)[C@@H](NC(C)=O)[C@H]([C@H](O)[C@H](O)CNC(=O)/C=C/c4ccccc4)O3)cc2)(C(=O)[O-])C[C@@H]1O.[Na+].[Na+]` [Compound 83] the rIP (Siglec-2 (CD22) [2]) was 73.
`CC(=O)N[C@H]1[C@H]([C@H](O)[C@H](O)CNC(=O)c2ccc(-c3ccccc3)cc2)O[C@@](OCCCSCCNC(=O)c2ccc(C(=O)NCCSCCCO[C@]3(C(=O)[O-])C[C@H](O)[C@@H](NC(C)=O)[C@H]([C@H](O)[C@H](O)CNC(=O)c4ccc(C5CCCCC5)cc4)O3)cc2)(C(=O)[O-])C[C@@H]1O.[Na+].[Na+]` [Compound 103] showed a rIP (Siglec-2 (CD22) [2]) of 185.
`CC(=O)N[C@H]1[C@H]([C@H](O)[C@H](O)CNC(=O)c2ccc(-c3ccccc3)cc2)O[C@@](OCCCSCCNC(=O)C2CCC(C(=O)NCCSCCCO[C@]3(C(=O)[O-])C[C@H](O)[C@@H](NC(C)=O)[C@H]([C@H](O)[C@H](O)CNC(=O)c4ccc(-c5ccccc5)cc4)O3)CC2)(C(=O)[O-])C[C@@H]1O.[Na+].[Na+]` (some centres unmarked) [Compound 31] showed a rIP (Siglec-2 (CD22) [2]) of 643.
With `CC(=O)N[C@H]1[C@H]([C@H](O)[C@H](O)CNC(=O)c2ccc(-c3ccccc3)cc2)O[C@@](OCCCSCCNC(=O)CC(=O)NCCSCCCO[C@]2(C(=O)[O-])C[C@H](O)[C@@H](NC(C)=O)[C@H]([C@H](O)[C@H](O)CNC(=O)c3ccc(-c4ccccc4)cc3)O2)(C(=O)[O-])C[C@@H]1O.[Na+].[Na+]` [Compound 37] the rIP (Siglec-2 (CD22) [2]) was 177.
Work on `CC(=O)N[C@H]1[C@H]([C@H](O)[C@H](O)CNC(=O)c2ccc(-c3ccccc3)cc2)O[C@@](OCCCSCCC(=O)Nc2ccc(NC(=O)CCSCCCO[C@]3(C(=O)[O-])C[C@H](O)[C@@H](NC(C)=O)[C@H]([C@H](O)[C@H](O)CNC(=O)c4ccc(-c5ccccc5)cc4)O3)cc2)(C(=O)[O-])C[C@@H]1O.[Na+].[Na+]` [Compound 39] yielded a rIP (Siglec-2 (CD22) [2]) of 10760.
With `CC(=O)N[C@H]1[C@H]([C@H](O)[C@H](O)CNC(=O)c2ccc(-c3ccccc3)cc2)O[C@@](OCCCSCCNC(=O)c2ccc(C(=O)NCCSCCCO[C@]3(C(=O)[O-])C[C@H](OC(=O)c4ccccc4)[C@@H](NC(C)=O)[C@H]([C@H](O)[C@H](O)CNC(=O)c4ccc(-c5ccccc5)cc4)O3)cc2)(C(=O)[O-])C[C@@H]1OC(=O)c1ccccc1.[Na+].[Na+]` [Compound 113] the rIP (Siglec-2 (CD22) [2]) was 3522.
For `CC(=O)N[C@H]1[C@H]([C@H](O)[C@H](O)CNC(=O)c2ccc(-c3ccsc3)cc2)O[C@@](OCCCSCCNC(=O)c2ccc(C(=O)NCCSCCCO[C@]3(C(=O)[O-])C[C@H](O)[C@@H](NC(C)=O)[C@H]([C@H](O)[C@H](O)CNC(=O)c4ccc(-c5ccsc5)cc4)O3)cc2)(C(=O)[O-])C[C@@H]1O.[Na+].[Na+]` [Compound 81], the rIP (Siglec-2 (CD22) [2]) was 2068.
For `CO[C@]1(C(=O)[O-])C[C@H](O)[C@@H](NC(C)=O)[C@H]([C@H](O)[C@H](O)CNC(=O)c2ccc(-c3ccccc3)cc2)O1.[Na+]` [BPC Neu 5Ac, reference compound], the “rIP (Literature assay)” value (Siglec-2 (CD22) [1]) was 1.
In the case of `CC(=O)N[C@H]1[C@H]([C@H](O)[C@H](O)CNC(=O)c2ccc(-c3ccccc3)cc2)O[C@@](OCCCSCCNCc2ccc(CNCCSCCCO[C@]3(C(=O)[O-])C[C@H](O)[C@@H](NC(C)=O)[C@H]([C@H](O)[C@H](O)CNC(=O)c4ccc(-c5ccccc5)cc4)O3)cc2)(C(=O)[O-])C[C@@H]1O.[Na+].[Na+]` [Compound 52], the rIP (Siglec-2 (CD22) [2]) is reported as 31.
Work on `CC(=O)N[C@H]1[C@H]([C@H](O)[C@H](O)CNC(=O)Cc2ccc(-c3ccccc3)cc2)O[C@@](OCCCSCCNC(=O)c2ccc(-c3ccc(C(=O)NCCSCCCO[C@]4(C(=O)[O-])C[C@H](O)[C@@H](NC(C)=O)[C@H]([C@H](O)[C@H](O)CNC(=O)Cc5ccc(-c6ccccc6)cc5)O4)cc3)cc2)(C(=O)[O-])C[C@@H]1O.[Na+].[Na+]` [Compound 128] yielded a rIP (Siglec-2 (CD22) [2]) of 19.
Work on `CC(=O)N[C@H]1[C@H]([C@H](O)[C@H](O)CNC(=O)c2ccc(Cl)cc2)O[C@@](OCCCSCCNC(=O)c2ccc(C(=O)NCCSCCCO[C@]3(C(=O)[O-])C[C@H](O)[C@@H](NC(C)=O)[C@H]([C@H](O)[C@H](O)CNC(=O)c4ccc(Cl)cc4)O3)cc2)(C(=O)[O-])C[C@@H]1O.[Na+].[Na+]` [Compound 72] yielded a rIP (Siglec-2 (CD22) [2]) of 38.
`CC(=O)N[C@H]1[C@H]([C@H](O)[C@H](O)CNC(=O)c2ccc(-c3ccccc3)cc2)O[C@](C(=O)[O-])(n2cc(CCCCNC(=O)c3ccc(C(=O)NCCCCc4cn([C@]5(C(=O)[O-])C[C@H](O)[C@@H](NC(C)=O)[C@H]([C@H](O)[C@H](O)CNC(=O)c6ccc(-c7ccccc7)cc6)O5)nn4)cc3)nn2)C[C@@H]1O.[Na+].[Na+]` [Compound 110] showed a rIP (Siglec-2 (CD22) [2]) of 12.
`CC(=O)N[C@H]1[C@H]([C@H](O)[C@H](O)CNC(=O)c2ccc(-c3ccccc3)cc2)O[C@@](OCC(=O)NCCCC(=O)Nc2ccc(NC(=O)CCCNC(=O)CO[C@]3(C(=O)[O-])C[C@H](O)[C@@H](NC(C)=O)[C@H]([C@H](O)[C@H](O)CNC(=O)c4ccc(-c5ccccc5)cc4)O3)cc2)(C(=O)[O-])C[C@@H]1O.[Na+].[Na+]` [Compound 90] gave a rIP (Siglec-2 (CD22) [2]) of 1445.
